According to US20250304623A1, “PEPTIDES FOR INTRACELLULAR DELIVERY” (UNIVERSIDADE DE SANTIAGO DE COMPOSTELA, priority 2022, published 2025):
*: point of attachment. NHNH2 = NN*

What was measured:
Assay type in all cases: cell-based
[1] = tested on: A549 cells; assay: EGFP mRNA delivery, robotic library screening, A549
How it was run: (§1)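 Transfection used amphiphile at final 2.5, 5 or 10 μM with EGFP mRNA (25 ng/well) for 4 h without serum, then medium with 10% FBS. Plate-reader EGFP signal at 72 h, untreated background removed, mean of triplicates.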

[2] = tested on: A549 cells expressing EGFP; assay: Cas9-RNP delivery against EGFP (gene editing, plate reader), A549; conditions: A549 cells
How it was run: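 EGFP knockout by Cas9-RNP was assessed in EGFP-expressing A549 cells. crRNA and tracrRNA were annealed, combined with Cas9 protein (4 μM in DMEM), and mixed with amphiphile. Cells were washed with PBS and exposed to the complexes in DMEM for 4 h, then given DMEM with 10% FBS. Fluorescence reduction versus untreated cells was measured 72 h later, subtracting background.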

[3] = tested on: Hela cells; assay: EGFP mRNA delivery, robotic library screening, HeLa
How it was run: as §1

[4] = tested on: HCT116 cells; assay: RLuc pDNA delivery, robotic library screening, HCT116

For Ac-RRLK*RLK*RRLK*RL-NH2 [Peptide 13.3], the “mean fluorescence intensity (EGFP mRNA)” value ([1]; Dodecanal, 2.5 μM) was 298, the “mean fluorescence intensity (EGFP mRNA)” value ([1]; Myristoleyl, 5 μM) was 170 and the “mean fluorescence intensity (EGFP mRNA)” value ([1]; Myristoleyl, 10 μM) was 240. The “mean fluorescence intensity (EGFP mRNA)” value ([1]; Oleyl, 2.5 μM) was 214, the “mean fluorescence intensity (EGFP mRNA)” value ([1]; Petroselinyl, 2.5 μM) was 245 and the “mean fluorescence intensity (EGFP mRNA)” value ([1]; Petroselinyl, 5 μM) was 117. For the same substance, the “mean fluorescence intensity (EGFP mRNA)” value ([1]; Petroselinyl, 10 μM) was 107, the “percentage of gene editing, GFP fluorescence intensity decrease (% of reduction)” value ([2]; Dodecanal, 10 μM) was 20% and the “percentage of gene editing, GFP fluorescence intensity decrease (% of reduction)” value ([2]; Myristoleyl, 5 μM) was 21%. For the same substance, the “percentage of gene editing, GFP fluorescence intensity decrease (% of reduction)” value ([2]; Myristoleyl, 10 μM) was 33%, the “percentage of gene editing, GFP fluorescence intensity decrease (% of reduction)” value ([2]; Myristoleyl, 15 μM) was 62% and the “percentage of gene editing, GFP fluorescence intensity decrease (% of reduction)” value ([2]; Oleyl, 10 μM) was 14%. The “percentage of gene editing, GFP fluorescence intensity decrease (% of reduction)” value ([2]; Oleyl, 15 μM) was 48%, the “percentage of gene editing, GFP fluorescence intensity decrease (% of reduction)” value ([2]; Palmitoleyl, 10 μM) was 33% and the “percentage of gene editing, GFP fluorescence intensity decrease (% of reduction)” value ([2]; Palmitoleyl, 15 μM) was 48%. For the same substance, the “percentage of gene editing, GFP fluorescence intensity decrease (% of reduction)” value ([2]; Petroselinyl, 5 μM) was 12%, the “percentage of gene editing, GFP fluorescence intensity decrease (% of reduction)” value ([2]; Petroselinyl, 10 μM) was 32% and the “percentage of gene editing, GFP fluorescence intensity decrease (% of reduction)” value ([2]; Petroselinyl, 15 μM) was 56%. For the same substance, the “mean fluorescence intensity (EGFP mRNA)” value ([3]; HeLa, Dodecanal, 5 μM) was 445, the “mean fluorescence intensity (EGFP mRNA)” value ([3]; HeLa, Myristoleyl, 2.5 μM) was 535 and the “mean fluorescence intensity (EGFP mRNA)” value ([3]; HeLa, Oleyl, 5 μM) was 427. For the same substance, the “mean fluorescence intensity (EGFP mRNA)” value ([3]; HeLa, Petroselinyl, 2.5 μM) was 633, the “mean fluorescence intensity (EGFP mRNA)” value ([3]; HeLa, Petroselinyl, 10 μM) was 489 and the “mean fluorescence intensity (EGFP mRNA)” value ([3]; Hela, Dodecanal, 10 μM) was 393. For the same substance, the “mean fluorescence intensity (EGFP mRNA)” value ([3]; Hela, Myristoleyl, 5 μM) was 580, the “mean fluorescence intensity (EGFP mRNA)” value ([3]; Hela, Myristoleyl, 10 μM) was 424 and the “mean fluorescence intensity (EGFP mRNA)” value ([3]; Hela, Petroselinyl, 5 μM) was 497. The “mean luminescent intensity (RLuc pDNA)” value ([4]; Dodecanal, 5 μM) was 60338 RLU, the “mean luminescent intensity (RLuc pDNA)” value ([4]; Dodecanal, 10 μM) was 4741 RLU and the “mean luminescent intensity (RLuc pDNA)” value ([4]; Myristoleyl, 5 μM) was 51434 RLU. The “mean luminescent intensity (RLuc pDNA)” value ([4]; Myristoleyl, 10 μM) was 32315 RLU, the “mean luminescent intensity (RLuc pDNA)” value ([4]; Myristoleyl, 15 μM) was 3431 RLU and the “mean luminescent intensity (RLuc pDNA)” value ([4]; Oleyl, 15 μM) was 1949 RLU. For the same substance, the “mean luminescent intensity (RLuc pDNA)” value ([4]; Palmitoleyl, 5 μM) was 142094 RLU, the “mean luminescent intensity (RLuc pDNA)” value ([4]; Palmitoleyl, 15 μM) was 17328 RLU and the “mean luminescent intensity (RLuc pDNA)” value ([4]; Petroselinyl, 5 μM) was 14318 RLU. For the same substance, the “mean luminescent intensity (RLuc pDNA)” value ([4]; Petroselinyl, 10 μM) was 99695 RLU and the “mean luminescent intensity (RLuc pDNA)” value ([4]; Petroselinyl, 15 μM) was 36052 RLU.
For “Ac-RK*LRK*K*L-NH2 (Ac-RK(NHNH2)LRK(NHNH2)K(NHNH2)L-NH2; not fully specified; printed as Ac-RK*LRK*K*L-NH2; also: K*2,K*5,K*6: native or modified lysine (ε-amide to a linker)) [Peptide 7.3]”, the “mean fluorescence intensity (EGFP mRNA)” value ([1]; Dodecanal, 2.5 μM) was 2894, the “mean fluorescence intensity (EGFP mRNA)” value ([1]; Dodecanal, 5 μM) was 4662 and the “mean fluorescence intensity (EGFP mRNA)” value ([1]; Dodecanal, 10 μM) was 248. For the same substance, the “mean fluorescence intensity (EGFP mRNA)” value ([1]; Myristoleyl, 2.5 μM) was 4491, the “mean fluorescence intensity (EGFP mRNA)” value ([1]; Myristoleyl, 5 μM) was 5378 and the “mean fluorescence intensity (EGFP mRNA)” value ([1]; Myristoleyl, 10 μM) was 228. For the same substance, the “mean fluorescence intensity (EGFP mRNA)” value ([1]; Oleyl, 2.5 μM) was 218, the “mean fluorescence intensity (EGFP mRNA)” value ([1]; Oleyl, 5 μM) was 1205 and the “mean fluorescence intensity (EGFP mRNA)” value ([1]; Oleyl, 10 μM) was 1046. The “mean fluorescence intensity (EGFP mRNA)” value ([1]; Palmitoleyl, 2.5 μM) was 2134, the “mean fluorescence intensity (EGFP mRNA)” value ([1]; Palmitoleyl, 5 μM) was 3484 and the “mean fluorescence intensity (EGFP mRNA)” value ([1]; Petroselinyl, 2.5 μM) was 1317. For the same substance, the “mean fluorescence intensity (EGFP mRNA)” value ([1]; Petroselinyl, 5 μM) was 6947, the “mean fluorescence intensity (EGFP mRNA)” value ([1]; Petroselinyl, 10 μM) was 641 and the “percentage of gene editing, GFP fluorescence intensity decrease (% of reduction)” value ([2]; Dodecanal, 10 μM) was −2%. For the same substance, the “percentage of gene editing, GFP fluorescence intensity decrease (% of reduction)” value ([2]; Dodecanal, 15 μM) was 1%, the “percentage of gene editing, GFP fluorescence intensity decrease (% of reduction)” value ([2]; Myristoleyl, 5 μM) was 7% and the “percentage of gene editing, GFP fluorescence intensity decrease (% of reduction)” value ([2]; Myristoleyl, 10 μM) was 10%. For the same substance, the “percentage of gene editing, GFP fluorescence intensity decrease (% of reduction)” value ([2]; Myristoleyl, 15 μM) was 12%, the “percentage of gene editing, GFP fluorescence intensity decrease (% of reduction)” value ([2]; Oleyl, 5 μM) was −9% and the “percentage of gene editing, GFP fluorescence intensity decrease (% of reduction)” value ([2]; Oleyl, 15 μM) was −1%. The “percentage of gene editing, GFP fluorescence intensity decrease (% of reduction)” value ([2]; Palmitoleyl, 5 μM) was 27%, the “percentage of gene editing, GFP fluorescence intensity decrease (% of reduction)” value ([2]; Palmitoleyl, 10 μM) was 33% and the “percentage of gene editing, GFP fluorescence intensity decrease (% of reduction)” value ([2]; Palmitoleyl, 15 μM) was 13%. The “percentage of gene editing, GFP fluorescence intensity decrease (% of reduction)” value ([2]; Petroselinyl, 5 μM) was 23%, the “percentage of gene editing, GFP fluorescence intensity decrease (% of reduction)” value ([2]; Petroselinyl, 10 μM) was 22% and the “percentage of gene editing, GFP fluorescence intensity decrease (% of reduction)” value ([2]; Petroselinyl, 15 μM) was 7%. For the same substance, the “mean fluorescence intensity (EGFP mRNA)” value ([3]; HeLa, Dodecanal, 2.5 μM) was 6327, the “mean fluorescence intensity (EGFP mRNA)” value ([3]; HeLa, Dodecanal, 5 μM) was 4738 and the “mean fluorescence intensity (EGFP mRNA)” value ([3]; HeLa, Myristoleyl, 2.5 μM) was 13591. The “mean fluorescence intensity (EGFP mRNA)” value ([3]; HeLa, Oleyl, 5 μM) was 501, the “mean fluorescence intensity (EGFP mRNA)” value ([3]; HeLa, Petroselinyl, 2.5 μM) was 9039 and the “mean fluorescence intensity (EGFP mRNA)” value ([3]; HeLa, Petroselinyl, 10 μM) was 732. For the same substance, the “mean fluorescence intensity (EGFP mRNA)” value ([3]; Hela, Dodecanal, 10 μM) was 572, the “mean fluorescence intensity (EGFP mRNA)” value ([3]; Hela, Myristoleyl, 10 μM) was 647 and the “mean fluorescence intensity (EGFP mRNA)” value ([3]; Hela, Palmitoleyl, 10 μM) was 189. For the same substance, the “mean luminescent intensity (RLuc pDNA)” value ([4]; Dodecanal, 10 μM) was 1049 RLU, the “mean luminescent intensity (RLuc pDNA)” value ([4]; Dodecanal, 15 μM) was 1534 RLU and the “mean luminescent intensity (RLuc pDNA)” value ([4]; Myristoleyl, 5 μM) was 1060 RLU. For the same substance, the “mean luminescent intensity (RLuc pDNA)” value ([4]; Myristoleyl, 10 μM) was 7147 RLU, the “mean luminescent intensity (RLuc pDNA)” value ([4]; Myristoleyl, 15 μM) was 212 RLU and the “mean luminescent intensity (RLuc pDNA)” value ([4]; Petroselinyl, 5 μM) was 62932 RLU. For the same substance, the “mean luminescent intensity (RLuc pDNA)” value ([4]; Petroselinyl, 10 μM) was 58529 RLU and the “mean luminescent intensity (RLuc pDNA)” value ([4]; Petroselinyl, 15 μM) was 16332 RLU.
